Data: paper PMC6934184, “Selective DNA-PKcs inhibition extends the therapeutic index of localized radiotherapy and chemotherapy” (The Journal of Clinical Investigation, 2019)

Target: T1, FER (Homo sapiens, UniProt P16591)
T1 construct: purchased Thermo Fisher Scientific (Life Technologies) SelectScreen
Assay: SelectScreen Z'LYTE
Format: biochemical
In short: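 NU5455 was profiled across the SelectScreen Broad panel of kinase activity and binding assays. Z'LYTE reactions such as CSF1R ran at apparent Km ATP, while the Adapta CAMK1 assay used ATP listed as 10. Values are given as percent.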

T1 sequence (P16591 whole entry): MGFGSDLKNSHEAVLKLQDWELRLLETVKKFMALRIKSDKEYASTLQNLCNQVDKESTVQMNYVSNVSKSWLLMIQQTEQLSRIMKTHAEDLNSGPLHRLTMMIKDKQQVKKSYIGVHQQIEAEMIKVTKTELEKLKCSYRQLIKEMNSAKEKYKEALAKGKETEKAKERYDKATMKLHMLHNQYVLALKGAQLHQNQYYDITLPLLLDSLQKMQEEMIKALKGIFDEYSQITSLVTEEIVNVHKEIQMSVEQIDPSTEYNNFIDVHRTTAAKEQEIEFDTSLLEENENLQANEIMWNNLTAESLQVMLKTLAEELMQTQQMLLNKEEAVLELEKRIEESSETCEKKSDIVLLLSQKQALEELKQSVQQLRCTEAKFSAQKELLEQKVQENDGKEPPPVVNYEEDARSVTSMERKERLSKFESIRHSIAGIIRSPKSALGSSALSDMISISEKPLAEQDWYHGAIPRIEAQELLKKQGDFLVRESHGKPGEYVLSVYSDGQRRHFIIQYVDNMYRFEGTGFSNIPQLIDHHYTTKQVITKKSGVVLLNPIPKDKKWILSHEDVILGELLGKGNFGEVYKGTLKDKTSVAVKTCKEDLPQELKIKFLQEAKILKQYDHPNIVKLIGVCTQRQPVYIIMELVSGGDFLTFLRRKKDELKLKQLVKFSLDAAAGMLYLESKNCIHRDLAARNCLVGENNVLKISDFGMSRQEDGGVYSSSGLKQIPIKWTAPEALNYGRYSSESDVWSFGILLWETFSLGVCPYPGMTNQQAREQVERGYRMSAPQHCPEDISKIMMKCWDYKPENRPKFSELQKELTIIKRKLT

SMILES: CN(C(=O)CN1CCOCC1)c1ccc2sc3c(-c4cccc5c(=O)cc(N6CC7CCC(C6)O7)oc45)cccc3c2c1 [NU5455]
- inhibition at 1 µM: 7.1%
